Source: US20090137615A1, “INDAZOLYLAMINO QUINAZOLINE DERIVATIVES AS ANTITUMOUR AGENTS” (priority 2005, published 2009)

How the values were obtained:
EGFR tyrosine kinase = biological target: T1, EGFR tyrosine kinase (Homo sapiens, UniProt P00533); assay: Protein tyrosine kinase phosphorylation assay, Test (a), EGFR; assay type: biochemical; conditions: recombinant intracellular fragment, ATP at Km; read-out: IC50 Test (a): Inhibition of EGFR tyrosine kinase protein phosphorylation
T1 construct: Recombinant intracellular fragments of EGFR, erbB2 and erbB4; made in house; host or cells: baculovirus/Sf21 insect cells (cleared lysate used)
T1 sequence (P00533 669-1210 limits assumed): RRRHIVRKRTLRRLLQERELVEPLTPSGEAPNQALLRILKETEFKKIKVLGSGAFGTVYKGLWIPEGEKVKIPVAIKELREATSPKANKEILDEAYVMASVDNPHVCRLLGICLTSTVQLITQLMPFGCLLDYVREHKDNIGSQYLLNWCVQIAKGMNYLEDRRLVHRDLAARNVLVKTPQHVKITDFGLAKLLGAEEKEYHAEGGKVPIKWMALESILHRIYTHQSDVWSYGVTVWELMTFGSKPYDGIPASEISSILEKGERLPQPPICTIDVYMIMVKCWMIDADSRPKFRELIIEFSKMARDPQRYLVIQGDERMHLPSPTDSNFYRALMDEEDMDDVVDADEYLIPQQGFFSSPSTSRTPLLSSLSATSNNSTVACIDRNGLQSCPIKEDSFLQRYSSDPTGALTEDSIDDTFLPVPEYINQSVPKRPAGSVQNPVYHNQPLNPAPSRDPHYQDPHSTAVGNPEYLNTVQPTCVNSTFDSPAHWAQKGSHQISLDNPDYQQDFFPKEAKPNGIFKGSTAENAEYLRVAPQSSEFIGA
Description: (§1) This test measures the ability of a test compound to inhibit the phosphorylation of a tyrosine containing polypeptide substrate by EGFR, erbB2 and erbB4 tyrosine kinase enzyme.
(§2) Recombinant intracellular fragments of EGFR, erbB2 and erbB4 (accession numbers X00588, X03363 and L07868 respectively) were cloned and expressed in the baculovirus/Sf21 system. […]
(§3) Constitutive kinase activity of these recombinant proteins was determined by their ability to phosphorylate a synthetic peptide (made up of a random co-polymer of Glutamic Acid, Alanine and Tyrosine in the ratio of 6:3:1). […]
(§4) The immobilised phospho-peptide product of the reaction was detected by immunological methods. […] After further washing, HRP activity in each well of the plate was measured colorimetrically using 22′-Azino-di-[3-ethylbenzthiazoline sulfonate (6)]diammonium salt crystals (ABTS™ from Roche) as a substrate.
(§5) Quantification of colour development and thus enzyme activity was achieved by the measurement of absorbance at 405 nm on a Molecular Devices ThermoMax microplate reader. Kinase inhibition for a given compound was expressed as an IC50 value. […] The range of phosphorylation was calculated from the positive (vehicle plus ATP) and negative (vehicle minus ATP) control values.

erbB2 tyrosine kinase = biological target: T2, erbB2 tyrosine kinase (Homo sapiens, UniProt P04626); assay: Protein tyrosine kinase phosphorylation assay, Test (a), erbB2; assay type: biochemical; conditions: recombinant intracellular fragment, ATP at Km; read-out: IC50 Test (a): Inhibition of erbB2 tyrosine kinase protein phosphorylation
T2 construct: Recombinant intracellular fragments of EGFR, erbB2 and erbB4; made in house; host or cells: baculovirus/Sf21 insect cells (cleared lysate used)
T2 sequence (P04626 676-1255 limits assumed): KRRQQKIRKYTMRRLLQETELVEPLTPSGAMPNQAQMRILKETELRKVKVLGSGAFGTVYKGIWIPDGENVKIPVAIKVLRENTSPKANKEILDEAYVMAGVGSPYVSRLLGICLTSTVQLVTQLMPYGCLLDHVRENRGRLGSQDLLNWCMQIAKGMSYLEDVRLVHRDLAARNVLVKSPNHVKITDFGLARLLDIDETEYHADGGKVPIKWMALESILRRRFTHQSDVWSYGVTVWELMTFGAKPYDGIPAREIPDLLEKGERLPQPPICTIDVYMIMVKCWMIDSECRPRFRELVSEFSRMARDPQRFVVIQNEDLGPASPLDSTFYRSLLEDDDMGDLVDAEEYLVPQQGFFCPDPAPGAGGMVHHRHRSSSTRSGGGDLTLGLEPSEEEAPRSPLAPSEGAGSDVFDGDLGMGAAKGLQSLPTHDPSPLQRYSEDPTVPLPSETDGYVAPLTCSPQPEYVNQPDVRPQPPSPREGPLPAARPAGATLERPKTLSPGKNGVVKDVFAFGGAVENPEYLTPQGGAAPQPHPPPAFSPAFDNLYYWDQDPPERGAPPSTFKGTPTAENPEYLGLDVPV
Description: as §1, §2, §3, §4, §5

erbB2 = biological target: T3, erbB2 (Homo sapiens, UniProt P04626); assay: Clone 24 phospho-erbB2 cell assay, Test (c); assay type: cell-based; conditions: MCF7 derived cell line (Clone 24) overexpressing erbB2, 4 hours; read-out: IC50 Test (c): Inhibition of erbB2 tyrosine kinase protein phosphorylation
T3 construct: a cell line that overexpresses full length wild type erbB2 protein; expressed in transfected cells; host or cells: MCF7 (breast carcinoma) derived 'Clone 24' cells
T3 sequence (P04626 23-1255): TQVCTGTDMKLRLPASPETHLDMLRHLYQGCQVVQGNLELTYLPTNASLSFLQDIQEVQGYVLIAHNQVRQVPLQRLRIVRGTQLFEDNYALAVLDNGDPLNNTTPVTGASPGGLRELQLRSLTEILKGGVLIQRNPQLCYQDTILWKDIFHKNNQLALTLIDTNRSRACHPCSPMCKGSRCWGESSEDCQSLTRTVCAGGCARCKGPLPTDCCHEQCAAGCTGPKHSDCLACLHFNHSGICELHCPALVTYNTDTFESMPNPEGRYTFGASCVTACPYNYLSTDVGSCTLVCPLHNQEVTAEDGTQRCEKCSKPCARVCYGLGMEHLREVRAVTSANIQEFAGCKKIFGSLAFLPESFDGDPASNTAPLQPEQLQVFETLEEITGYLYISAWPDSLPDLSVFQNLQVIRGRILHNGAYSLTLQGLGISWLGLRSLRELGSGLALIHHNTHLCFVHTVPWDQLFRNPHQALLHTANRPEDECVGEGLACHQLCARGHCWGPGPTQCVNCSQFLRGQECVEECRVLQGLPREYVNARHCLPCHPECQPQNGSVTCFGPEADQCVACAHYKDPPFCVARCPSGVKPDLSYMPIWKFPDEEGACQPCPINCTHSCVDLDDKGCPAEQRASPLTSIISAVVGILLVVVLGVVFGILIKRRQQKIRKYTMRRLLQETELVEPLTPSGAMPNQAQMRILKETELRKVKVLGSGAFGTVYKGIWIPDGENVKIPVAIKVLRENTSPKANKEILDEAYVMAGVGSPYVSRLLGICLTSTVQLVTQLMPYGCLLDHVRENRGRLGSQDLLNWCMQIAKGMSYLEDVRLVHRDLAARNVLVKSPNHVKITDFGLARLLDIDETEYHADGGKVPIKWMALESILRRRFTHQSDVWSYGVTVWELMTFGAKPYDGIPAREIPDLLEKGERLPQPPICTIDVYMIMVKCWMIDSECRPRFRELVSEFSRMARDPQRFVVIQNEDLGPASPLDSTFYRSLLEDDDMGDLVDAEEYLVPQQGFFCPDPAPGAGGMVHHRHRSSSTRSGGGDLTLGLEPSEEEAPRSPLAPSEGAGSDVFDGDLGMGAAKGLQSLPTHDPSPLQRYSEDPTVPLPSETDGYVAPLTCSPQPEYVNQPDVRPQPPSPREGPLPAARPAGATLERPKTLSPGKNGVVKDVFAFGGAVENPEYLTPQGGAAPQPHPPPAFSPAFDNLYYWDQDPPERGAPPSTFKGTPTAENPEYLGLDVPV
Description: This immunofluorescence end point assay measures the ability of a test compound to inhibit the phosphorylation of erbB2 in a MCF7 (breast carcinoma) derived cell line which was generated by transfecting MCF7 cells with the full length erbB2 gene using standard methods to give a cell line that overexpresses full length wild type erbB2 protein (hereinafter ‘Clone 24’ cells).
Clone 24 cells were cultured in Growth Medium (phenol red free Dulbecco's modified Eagle's medium (DMEM) containing 10% foetal bovine serum, 2 mM glutamine and 1.2 mg/ml G418) in a 7.5% CO2 air incubator at 37° C. […] Cell density was measured using a haemocytometer and viability was calculated using Trypan Blue solution before being further diluted in Growth Medium and seeded at a density of 1×10^4 cells per well (in 100 μl) into clear bottomed 96 well plates (Packard, No. 6005182). […]
Immunostaining was performed at room temperature. […] Plates were analysed within six hours of completing the immunostaining.
The Fluorescence signal is each well was measured using an Acumen Explorer Instrument (Acumen Bioscience Ltd.), a plate reader that can be used to rapidly quantitate features of images generated by laser-scanning. […]

| Structure (SMILES) | IC50 (EGFR tyrosine kinase) | IC50 (erbB2 tyrosine kinase) | IC50 (erbB2) |
| --- | --- | --- | --- |
| O=C(CO)N1CCCC[C@@H]1COc1cccc2ncnc(Nc3ccc4c(cnn4Cc4ccccn4)c3)c12 [Example 4, 2-Oxo-2-((2R)-2-{[(4-{[1-(pyridin-2-ylmethyl)-1H-indazol-5-yl]amino}quinazolin-5-yl)oxy]methyl}piperidin-1-yl)ethanol] | 61 nM | 5 nM | 44 nM |
| O=C(CO)N1CCC[C@@H]1COc1cccc2ncnc(Nc3ccc4c(cnn4Cc4ccccn4)c3)c12 [Example 1, 2-Oxo-2-((2R)-2-{[(4-{[1-(pyridin-2-ylmethyl)-1H-indazol-5-yl]amino}quinazolin-5-yl)oxy]methyl}pyrrolidin-1-yl)ethanol] | 310 nM | 6 nM | 380 nM |
